Measurements from patent US9023817B2, “Use of albiflorin for anti-depression” (priority 2009, dated 2015).

How the values were obtained:
[1] = tested on: rats with chronic stress induced depression model; assay: Open-field test, chronic stress induced depression; format: in vivo, SD rats; details: 3.5 mg/kg/day gavage for 21 days; 3 minutes
Procedure: The gavage was carried out along with the model establishment, once a day, for 21 days. […] Referring to the methods in the literature (Xu Jing, Li Xiaoqiu, Establishment and evaluation of the model of chronic stress induced depression, Chinese Journal of Behavioral Medical Science, 2003, 12(1): 14 16), the model was established (i.e., establishing animal model of anti-depression by means of CUMS): the foot electric shock (voltage: […] (5 minutes), drying at 45° C. (5 minutes), tail nipping (1 min), wet feeding (wet mat), reversed day and night (24 hours), fasting (24 hours), water deprivation (24 hours) were randomly scheduled within 21 days, one kind of stimulations was given for each day, except for the animals of vehicle group, the others were separately caged with free diet, at the room temperature of (24±1)° C., with the relative humidity of (60±10)%. The open-field device was of 40 cm in height, 80 cm in both length and width, without cap, the inner walls and the bottom of the device are black, and the bottom was divided into 25 squares with equal area. The numbers of squares that the animals pass through were designated as the score of horizontal movement, and the numbers of standing (with the forelegs above 1 cm away from the ground) were designated as the score of vertical movement. Each animal was measured for one time, 3 minutes for each measurement. All parameters to be tested were expressed as Mean±SD (X±s), and tested by means of analysis of variance (ANOVA) in SPSS 12.0 software (purchased from SPSS Inc., USA), p<0.05 means that there was a significant difference.

[2] = tested on: ICR mice; assay: Tail suspension test in mice, intraperitoneal injection; format: in vivo; details: 7 mg/kg intraperitoneal injection, 1 day; 30 min after administration
Procedure: Normal mice were randomly divided into three groups (n=20 for each group) according to their weights, i.e. model group, high-dose group (14 mg/kg) and medium-dose group (7 mg/kg) of Albiflorin. Intraperitoneal injection group was subjected to the administration for 1 day. Each group was administered at a dose of 0.2 ml/10 g weight.
The test of intraperitoneal injection group was performed at 30 min after the administration. The tail of mouse 2 cm away from the tip of the tail) was fixed to the connection line of 100 g tension transducer with adhesive plaster, and the mouse was hung upside down, with the head about 15 cm away from the experimental bench, two animals isolated from each other by a cardboard were simultaneously tested for each time. The transducer was connected into the Medlab bio-signals acquisition and processing system, after 2 mins of adaption, the result over 4 mins was recorded, and the immobility situation was converted into the time(s).
The experimental data was expressed as X±SD, and the analysis of variance for the experimental results was carried out by SPSS 11.5 statistical software (purchased from SPSS Inc., USA).

[3] = tested on: ICR mice; assay: Tail suspension test in mice, administration by gavage; format: in vivo; details: 3.5 mg/kg/d by gavage for two days; 1 h after administration; over 4 min
Procedure: In the second day, 1 h after the administration, the tail of mouse (2 cm away from the tip of the tail) was fixed to the connection line of 100 g tension transducer by adhesive plaster, and the mouse was hung upside down, with the head about 15 cm away from the experimental bench, two animals isolated from each other by a cardboard were simultaneously tested for each time. The transducer was connected to the Medlab bio-signals acquisition and processing system, after 2 min of adaption, the result over 4 min was recorded, and the immobility situation was converted into the time(s). The experimental data were expressed as X±SD, and the analysis of variance for the experimental results was carried out by SPSS 11.5 statistical software (purchased from SPSS Inc., USA).

[4] = tested on: noradrenalin in the brain of rat; assay: Noradrenalin in the brain of rat with chronic stress (HPLC-ECD, prefrontal cortex); format: in vivo, SD rats; details: 3.5 mg/kg/d gavage for 21 days
Procedure: After being fed without water for 24 hours, SD rats were administered with 1% aqueous sucrose, the consumption of aqueous sucrose was measured for 1 hour. The rats were randomly divided into six groups (n=12 for each group) according to the consumptions of aqueous sucrose, i.e. vehicle group, model group, positive control group of Fluoroxetine Hydrochloride (2.5 mg/kg/d), high-dose group (14 mg/kg/day), medium-dose group (7 mg/kg/day), and low-dose group (3.5 mg/kg/day) of Albiflorin. The gavage was carried out along with the model establishment, once a day, for 21 days. Each group was administered at a dose of 1.0 ml/100 g weight, and weighed once a week.
The rats were fed at 6/cage as vehicle group, with normal diets and drinking water, and without any stimulation.
The rats were fed at 1/cage as the other five groups, and subjected to unpredicted stress stimulations for 21 days, including: swimming in ice water, drying, tail nipping, wet feeding, reversed day and night, fasting, water deprivation and the like. One kind of stimulations was randomly given for each day.
The animal was executed by decapitation, the brain of it was quickly stripped on the ice, the prefrontal cortex was taken out, then placed into frozen tissue tube after weighting, rapidly frozen with liquid nitrogen, and placed into the refrigerator at −70° C. until test.

C[C@]12C[C@@H](O)[C@@H]3C[C@@]1(O[C@@H]1O[C@H](CO)[C@@H](O)[C@H](O)[C@H]1O)[C@@]3(COC(=O)c1ccccc1)C(=O)O2 [Albiflorin]
Score of horizontal movement [1]: 21.42 ± 20.38
Score of vertical movement [1]: 4.67 ± 6.87
Immobility Time [2]: 82.350 ± 52.5132 s
Immobility Time [3]: 83.82 ± 35.099 s
NA [4]: 174.59 ± 60.35
